From ChEMBL document CHEMBL4340552, “Identification of BMI1 promoter inhibitors from Streptomyces sp. IFM-11958” (Bioorg Med Chem, 2019)

Tests used:
[1] = Inhibition of BMI1 promoter in HEK293T cells incubated for 24 hrs by luciferase reporter gene assay; assay type: cell-based; details: Homo sapiens, HEK-293T
HEK293 = assay: Cytotoxicity against HEK293 cells assessed as reduction in cell viability incubated for 24 hrs by FMCA method; assay type: cell-based; details: Homo sapiens, HEK293, 24 h
DU-145 [2] = assay: Down-regulation of BMI1 mRNA expression in human DU145 cells incubated for 24 hrs by Quantitative RT-PCR analysis; assay type: functional, cell-based
DU-145 [3] = assay: Down-regulation of BMI1 protein expression in human DU145 cells incubated for 24 hrs by Western blot analysis; assay type: functional, cell-based
DU-145 [4] = assay: Down-regulation of c-Myc protein expression in human DU145 cells incubated for 24 hrs by Western blot analysis; assay type: functional, cell-based
Huh-7 [5] = assay: Cytotoxicity against human HuH7 cells assessed as reduction in cell viability incubated for 24 hrs by FMCA method; assay type: functional, cell-based; details: Huh-7, 24 h
DU-145 [6] = assay: Cytotoxicity against human DU145 cells assessed as reduction in cell viability incubated for 24 hrs by FMCA method; assay type: functional, cell-based; details: DU-145, 24 h
DU-145 [7] = assay: Up-regulation of p16Ink4a mRNA expression in human DU145 cells incubated for 24 hrs by Quantitative RT-PCR analysis; assay type: functional, cell-based
Huh-7 [8] = assay: Inhibition of sphere formation in human HuH7 cells incubated for 72 hrs by sphere forming assay; assay type: functional, cell-based

## O=C1CCC(=O)N(O)CCCCCNC(=O)CCC(=O)N(O)CCCCCNC(=O)CCC(=O)N(O)CCCCCN1 [NOCARDAMINE]
[1]
  IC50: 22000 nM

## CC[C@@H]1[C@@H](C)O[C@@](O)([C@@H](C)[C@H](O)[C@H](C)[C@H]2OC(=O)/C=C/C=C/[C@H](C)[C@@H]([C@@H](C)[C@@H](O)[C@H](C)[C@@]3(O)C[C@@H](O[C@H]4C[C@H](O)[C@H](O)[C@H](C)O4)[C@H](CC)[C@@H](C)O3)OC(=O)/C=C/C=C/[C@@H]2C)C[C@H]1O[C@H]1C[C@H](O)[C@H](O)[C@H](C)O1
HEK293
  IC50: 200 nM
DU-145 [2]
  Activity: Dose-dependent effect
DU-145 [3]
  inhibition: Dose-dependent effect
[1]
  IC50: 30 nM
DU-145 [4]
  inhibition: Dose-dependent effect
Huh-7 [5]
  IC50: 4.2 nM
DU-145 [6]
  IC50: 31 nM
DU-145 [7]
  Activity: Dose-dependent effect
Huh-7 [8]
  inhibition: Dose-dependent effect

## CC[C@@H]1[C@@H](C)O[C@@](O)([C@@H](C)[C@H](O)[C@H](C)[C@H]2OC(=O)/C=C/C=C/[C@H](C)[C@@H]([C@@H](C)[C@@H](O)[C@H](C)[C@@]3(O)C[C@@H](O[C@H]4C[C@H](O)[C@H](O)[C@H](C)O4)[C@H](CC)[C@@H](C)O3)OC(=O)/C(C)=C/C=C/[C@@H]2C)C[C@H]1O[C@H]1C[C@H](O)[C@H](O)[C@H](C)O1
[1]
  IC50: 447 nM
